Entries after “also recorded” stand apart in the source; their conditions may differ.
Assays:
microorganisms = test: Peptides having multiple activities (targeting/binding, antimicrobial, growth or phenotype altering)
Text: In certain embodiments, peptides described herein can have multiple activities. Thus for example, a peptide can have both binding/targeting activity and antimicrobial activity. Such peptides can be used, e.g., in a chimeric construct, for any or all of these properties. Thus, for example, a peptide designated “B” in Table 8 can be used as a targeting peptide. If it is also designated G or M it can also be used for antimicrobial activity.

E. faecalis = test: Kill or inhibit growth/proliferation; morphology, biofilm and growth disruption (Tables 5, 6); assay type: cell-based, Enterococcus faecalis; set-up: key: A: Peptide aggregates; B: Less hyphal formation; Clumps; Diffuse clumps and small polyps; F: Diffuse growth; H: Thin; I: Growth inhibition; Microcolony formation; Rippled; Small polyps; Thick; W: Halo formation on top, microlonies on bottom; note: test concentration or dose not given here
[1] = system: microorganisms (e.g., bacteria, yeasts, fungi); test: Targeting peptide binding to target microorganisms (Table 3); conditions: preferably 1x PBS; for Target(s) (microorganisms bound by the targeting peptide): peptide binding in aqueous buffers varied by peptide solubility; for Target(s): microorganism(s) the targeting peptide binds, peptide binding conducted in aqueous buffers varied by peptide solubility
MRSA = test: Kill or inhibit growth/proliferation; morphology, biofilm and growth disruption (Tables 5, 6); assay type: cell-based, Methicillin-resistant Staphylococcus aureus; set-up: key: A: Peptide aggregates; B: Less hyphal formation; Clumps; Diffuse clumps and small polyps; F: Diffuse growth; H: Thin; I: Growth inhibition; Microcolony formation; Rippled; Small polyps; Thick; W: Halo formation on top, microlonies on bottom; note: test concentration or dose not given here
S. pneumoniae = test: as above; assay type: cell-based, Streptococcus pneumoniae; set-up: key: A: Peptide aggregates; B: Less hyphal formation; Clumps; Diffuse clumps and small polyps; F: Diffuse growth; H: Thin; I: Growth inhibition; Microcolony formation; Rippled; Small polyps; Thick; W: Halo formation on top, microlonies on bottom; note: test concentration or dose not given here
S. epidermidis = test: as above; assay type: cell-based, Staphylococcus epidermidis; set-up: key: A: Peptide aggregates; B: Less hyphal formation; Clumps; Diffuse clumps and small polyps; F: Diffuse growth; H: Thin; I: Growth inhibition; Microcolony formation; Rippled; Small polyps; Thick; W: Halo formation on top, microlonies on bottom
Throughout, for Organism, effect (morphology, biofilm and growth disruption): test concentration or dose not given here.
Throughout, for Organism, effect: test concentration or dose not given here.

Substance	Activities (microorganisms)	Organism, effect (E. faecalis)	Target(s) (microorganisms bound by the targeting peptide) [1]	further results
DEIKVSDEEIEKFIKENNL [PF-597]	G B	E. faecalis (A)	P. mirabilis	
PF-394: peptide having multiple activities (chain 1 VLKEECYQKN; chain 2 VLKEECYQKN; Peptide with targeting and/or antimicrobial activity)	G B	E. faecalis (A)		Target(s) [1]: S. epidermidis and MRSA and C. jejuni; Organism, effect (MRSA): MRSA (C)
PF-430: peptide having multiple activities (AVVCGYLAYTATS; Peptide with targeting and/or antimicrobial activity)	G B			Target(s) [1]: S. epidermidis; also recorded: M. luteus; also recorded: E. coli; also recorded: S. pneumoniae; also recorded: E. faecalis; also recorded: C. jeikeium; also recorded: C. jejuni; Organism, effect (MRSA): MRSA (M); Organism, effect (S. pneumoniae): S. pneumoniae (M); Organism, effect (S. epidermidis): S. epidermidis (M)
PF-450: peptide having multiple activities (chain 1 HRNLIILQRTIFI; chain 2 HRNLIILQRTIFI; Peptide with targeting and/or antimicrobial activity)	G B	E. faecalis (C)		Organism, effect (MRSA): MRSA (C); Organism, effect (S. pneumoniae): S. pneumoniae (C)
PF-484: peptide having multiple activities (chain 1 HKKDIRKQVFKN; chain 2 HKKDIRKQVFKN; Peptide with targeting and/or antimicrobial activity)	G B	E. faecalis (A)		Target(s) [1]: S. epidermidis; also recorded: M. luteus; also recorded: P. mirabilis; also recorded: E. coli; also recorded: E. faecalis; also recorded: C. jeikeium; also recorded: C. jejuni
PF-582 (NLKTIEKECPFCNNKMDIKLKD; Peptide with targeting and/or antimicrobial activity)		E. faecalis (A)		
PF-588: peptide having multiple activities (ESVEAIKAKAIK; Peptide with targeting and/or antimicrobial activity)	G B	E. faecalis (A)		Target(s) [1]: S. epidermidis; also recorded: E. coli; also recorded: C. albicans; also recorded: E. faecalis; also recorded: C. jeikeium; also recorded: C. jejuni
PF-593: peptide having multiple activities (MEISTLKKEKLHVKDELSQYLANYKK; Peptide with targeting and/or antimicrobial activity)	G B	E. faecalis (A)		Target(s) [1]: C. jeikeium
PF-594: peptide having multiple activities (IVSAIV; Peptide with targeting and/or antimicrobial activity)	G B	E. faecalis (C)		Target(s) [1]: C. jeikeium
PF-602: peptide having multiple activities (LEKEKKEYIEKLFKTK; Peptide with targeting and/or antimicrobial activity)	G B	E. faecalis (A)	P. mirabilis; also recorded: C. jeikeium	
PF-604: peptide having multiple activities (LMEQVEV; Peptide with targeting and/or antimicrobial activity)	G B	E. faecalis (A)	S. epidermidis; also recorded: C. albicans; also recorded: C. jeikeium	
PF-613: peptide having multiple activities (ADEFAKL; Peptide with targeting and/or antimicrobial activity)	G B	E. faecalis (A)	C. jeikeium	Organism, effect (MRSA): MRSA (C); Organism, effect (S. epidermidis): S. epidermidis (R)
PF-616: peptide having multiple activities (IVFVVTKEKK; Peptide with targeting and/or antimicrobial activity)	G B	E. faecalis (A)	C. jeikeium	Organism, effect (S. epidermidis): S. epidermidis (R)
PF-618 (KLNTLNKKDNPSLNDQDKNAVLNLLALAK; Peptide with targeting and/or antimicrobial activity)		E. faecalis (H)		Organism, effect (S. pneumoniae): S. pneumoniae (I)
PF-621: peptide having multiple activities (PPSSFLV; Peptide with targeting and/or antimicrobial activity)	G B	E. faecalis (H)	S. epidermidis; also recorded: C. albicans	Organism, effect (S. pneumoniae): S. pneumoniae (I)
PF-631: peptide having multiple activities (chain 1 LIIYFSKTGNTARATRQI; chain 2 LIIYFSKTGNTARATRQI; Peptide with targeting and/or antimicrobial activity)	G B	E. faecalis (H)	S. epidermidis and P. aeruginosa and C. albicans and MRSA and S. pneumoniae and E. faecalis and C. jeikeium	Organism, effect (S. pneumoniae): S. pneumoniae (I)
PF-643 (chain 1 VRCRL; chain 2 VRCRL; Peptide with targeting and/or antimicrobial activity)		E. faecalis (R)	Mycobacteria spp	Organism, effect (MRSA): MRSA (C); Organism, effect (S. pneumoniae): S. pneumoniae (R)
PF-649 (chain 1 CPRYPFVDVGPAGPWRARWRVGS; chain 2 CPRYPFVDVGPAGPWRARWRVGS; Peptide with targeting and/or antimicrobial activity)			Mycobacteria spp	Organism, effect (morphology, biofilm and growth disruption) (E. faecalis): E. faecalis (R)
PF-675 (chain 1 EIIPISPTRRCEMHTMSSAEYRGL; chain 2 EIIPISPTRRCEMHTMSSAEYRGL; Peptide with targeting and/or antimicrobial activity)			Mycobacteria spp	Organism, effect (morphology, biofilm and growth disruption) (E. faecalis): E. faecalis (R); Organism, effect (morphology, biofilm and growth disruption) (S. pneumoniae): S. pneumoniae (C)
PF-695 (chain 1 ALSVMLGNIPLVVPNANQL; chain 2 ALSVMLGNIPLVVPNANQL; Peptide with targeting and/or antimicrobial activity)			Mycobacteria spp	Organism, effect (morphology, biofilm and growth disruption) (E. faecalis): E. faecalis (R); Organism, effect (morphology, biofilm and growth disruption) (MRSA): MRSA (R); Organism, effect (morphology, biofilm and growth disruption) (S. pneumoniae): S. pneumoniae (C)
PF-760: peptide having multiple activities (DHITLDDYEIHDGFNFELYYG; Peptide with targeting and/or antimicrobial activity)	G B		S. epidermidis; also recorded: M. luteus	Organism, effect (morphology, biofilm and growth disruption) (MRSA): MRSA (M); Organism, effect (morphology, biofilm and growth disruption) (S. pneumoniae): S. pneumoniae (C); Organism, effect (morphology, biofilm and growth disruption) (S. epidermidis): S. epidermidis (M)

Source: patent US20110039762A1, “TARGETED ANTIMICROBIAL MOIETIES” (C3 JIAN, INC., priority 2009, published 2011)
